{"source": "patent US20250066300A1", "about": "“3-(2-(DIMETHYLAMINO)ETHYL)-1H-INDOL-4-yl OLIGOMERIC DERIVATIVES” (priority 2023, published 2025)", "assay": "Psilocin conversion in the dose formulation (HPLC-MS/MS)", "type": "physicochemical", "conditions": "saline formulation, final pH 6.3, aliquots stored at −80° C. until analysis", "procedure": "Compounds: Compound 122 was dissolved in saline (1.3 mg/kg) and adjusted to pH 7.4 for SC administration to the neck scruff at a dosing volume of 5 mL/kg. The final pH was checked prior to dosing, and found to be pH 6.3. This dose was selected as it delivered 0.72 mg/kg psilocin (assuming 100% conversion of the pro-drug). Aliquots of the formulation was additionally collected and stored at −80° C. until analysis by high performance liquid chromatography with tandem mass spectrometry (HPLC-MS/MS) to confirm dosing of compound 122 and minimal conversion to psilocin pre-dose (<2.5%).\n[…]. Three aliquots from the dose formulations were diluted to a nominal concentration of 5 μg/mL, and injected in triplicate into the HPLC-MS/MS. The relative percentage of the psilocin peak in the dose formulation compared to the psilocin standard peak at 5 μg/mL, was used to assess for psilocin conversion in the dosing formulations."}
{"molecule": "CN(C)CCc1c[nH]c2cccc(OC(=O)CCCC(=O)Oc3cccc4[nH]cc(CCN(C)C)c34)c12", "note": "[Compound 122, bis(3-(2-(dimethylamino)ethyl)-1H-indol-4-yl) glutarate]", "values": [{"measurement": "conversion to psilocin pre-dose in dose formulation", "value": "< 2.5", "unit": "%"}]}
